Earlier results as cited in patent US20130116211A1, “Novel Salts Of Boswellic Acids And Selectively Enriched Boswellic Acids And Processes For The Same” (priority 2005, published 2013).

Legend:
5-LOX = target: T1, 5-LOX (Homo sapiens, UniProt P09917)
T1 sequence (P09917 1-674): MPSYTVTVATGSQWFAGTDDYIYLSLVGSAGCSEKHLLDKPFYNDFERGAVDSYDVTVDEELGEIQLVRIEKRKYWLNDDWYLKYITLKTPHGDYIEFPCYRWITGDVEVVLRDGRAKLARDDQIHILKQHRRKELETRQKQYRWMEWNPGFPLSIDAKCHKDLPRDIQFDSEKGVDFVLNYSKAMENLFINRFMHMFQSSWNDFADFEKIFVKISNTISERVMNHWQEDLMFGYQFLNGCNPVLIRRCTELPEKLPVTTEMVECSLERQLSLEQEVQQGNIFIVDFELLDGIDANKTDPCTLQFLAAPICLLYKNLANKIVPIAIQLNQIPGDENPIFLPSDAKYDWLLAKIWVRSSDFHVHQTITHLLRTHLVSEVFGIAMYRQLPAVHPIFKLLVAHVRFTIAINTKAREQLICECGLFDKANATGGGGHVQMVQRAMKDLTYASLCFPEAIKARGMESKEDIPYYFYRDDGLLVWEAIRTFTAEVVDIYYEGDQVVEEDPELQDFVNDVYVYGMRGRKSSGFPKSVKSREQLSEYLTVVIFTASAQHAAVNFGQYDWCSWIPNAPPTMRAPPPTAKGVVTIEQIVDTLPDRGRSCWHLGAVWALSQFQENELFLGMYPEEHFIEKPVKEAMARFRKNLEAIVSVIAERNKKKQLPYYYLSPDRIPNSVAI

[1] = tested on: symptoms of osteoarthritis; settings: relieving the symptoms of osteoarthritis, double-blind studies

**Q.** Which “mechanism of 5-LOX inhibition” value (5-LOX; binds in a calcium-dependent and reversible manner (Sailer 1998)) does the source give for “3-O-acetyl-11-keto-β-boswellic acid [AKBA]” here?
**A.** The value was “non-redox-type, non-competitive inhibitor”.

**Q.** And the “inhibitory activity against 5-LOX” value (5-LOX; compared among all the six boswellic acids (Sailer 1996))?
**A.** Its value is “most pronounced inhibitory activity”.

**Q.** Which “therapeutic effects versus non steroidal anti-inflammatory drugs” value [1] does the source give for `N[C@H]1C(O)O[C@H](CO)[C@@H](O)[C@@H]1O.O=S(=O)(O)O` (stereo partly drawn) [glucosamine sulfate] here?
**A.** The value was “comparable to or even better than”.
